Test results published in PMC10838953.

What was measured:
[1] = biological target: KIT(V559D) (Homo sapiens, UniProt P10721, V559D); assay: biochemical; details: read-out: %Ctrl @ 2000nM
[2] = biological target: PIK3CA(C420R) (Homo sapiens, UniProt P42336, C420R); assay: biochemical; details: read-out: %Ctrl @ 2000nM
[3] = biological target: FLT1 (Homo sapiens, UniProt P17948); assay: biochemical; details: read-out: %Ctrl @ 2000nM
[4] = biological target: PRP4 (Homo sapiens, UniProt Q13523); assay: biochemical; details: read-out: %Ctrl @ 2000nM
PRP4, sequence (Q13523 whole entry): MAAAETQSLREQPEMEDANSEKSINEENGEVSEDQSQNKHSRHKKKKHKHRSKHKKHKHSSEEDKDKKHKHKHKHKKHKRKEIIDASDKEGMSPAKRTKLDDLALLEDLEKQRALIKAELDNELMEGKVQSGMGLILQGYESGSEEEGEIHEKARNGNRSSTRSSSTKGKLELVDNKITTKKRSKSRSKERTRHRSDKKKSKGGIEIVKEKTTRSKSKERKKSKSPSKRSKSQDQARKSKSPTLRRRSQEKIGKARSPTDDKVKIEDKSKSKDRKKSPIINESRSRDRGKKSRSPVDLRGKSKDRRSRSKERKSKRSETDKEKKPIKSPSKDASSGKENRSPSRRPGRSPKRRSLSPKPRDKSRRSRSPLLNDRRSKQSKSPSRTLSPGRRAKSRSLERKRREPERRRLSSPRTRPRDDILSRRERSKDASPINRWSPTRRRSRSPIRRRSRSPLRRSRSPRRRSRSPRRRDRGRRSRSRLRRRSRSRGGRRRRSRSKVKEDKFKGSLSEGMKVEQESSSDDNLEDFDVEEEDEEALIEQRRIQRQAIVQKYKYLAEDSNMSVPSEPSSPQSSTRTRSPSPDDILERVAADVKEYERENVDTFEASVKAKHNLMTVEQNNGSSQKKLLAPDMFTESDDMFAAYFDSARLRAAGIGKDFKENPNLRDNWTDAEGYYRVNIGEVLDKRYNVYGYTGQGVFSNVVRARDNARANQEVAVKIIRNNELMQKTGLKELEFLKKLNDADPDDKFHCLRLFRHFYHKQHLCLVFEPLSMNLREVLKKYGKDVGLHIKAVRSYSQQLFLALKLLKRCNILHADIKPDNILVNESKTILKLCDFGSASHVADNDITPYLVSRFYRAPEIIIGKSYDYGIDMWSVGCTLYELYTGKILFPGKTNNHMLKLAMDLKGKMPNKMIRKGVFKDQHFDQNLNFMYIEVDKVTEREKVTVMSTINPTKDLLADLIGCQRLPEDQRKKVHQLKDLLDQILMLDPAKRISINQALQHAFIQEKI

[5] = biological target: ABL1-nonphosphorylated (Homo sapiens, UniProt P00519); assay: biochemical; details: read-out: %Ctrl @ 2000nM
[6] = biological target: SRPK1 (Homo sapiens, UniProt Q96SB4); assay: biochemical; details: read-out: %Ctrl @ 2000nM
[7] = biological target: PDPK1 (Homo sapiens, UniProt O15530); assay: biochemical; details: read-out: %Ctrl @ 2000nM
[8] = system: primary hepatocytes
[9] = biological target: BRSK1 (Homo sapiens, UniProt Q8TDC3); assay: biochemical; details: read-out: %Ctrl @ 2000nM
[10] = biological target: EPHA1 (Homo sapiens, UniProt P21709); assay: biochemical; details: read-out: %Ctrl @ 2000nM
[11] = biological target: DMPK2 (Homo sapiens, UniProt Q6DT37); assay: biochemical; details: read-out: %Ctrl @ 2000nM
[12] = biological target: CDK2 (Homo sapiens, UniProt P24941); assay: biochemical; details: read-out: %Ctrl @ 2000nM
[13] = biological target: PKMYT1 (Homo sapiens, UniProt Q99640); assay: biochemical; details: read-out: %Ctrl @ 2000nM
[14] = biological target: TRKC (Homo sapiens, UniProt Q16288); assay: biochemical; details: read-out: %Ctrl @ 2000nM
[15] = biological target: ADCK4 (Homo sapiens, UniProt Q96D53); assay: biochemical; details: read-out: %Ctrl @ 2000nM
[16] = biological target: CDK7 (Homo sapiens, UniProt P50613); assay: biochemical; details: read-out: %Ctrl @ 2000nM
CDK7, sequence (P50613 whole entry): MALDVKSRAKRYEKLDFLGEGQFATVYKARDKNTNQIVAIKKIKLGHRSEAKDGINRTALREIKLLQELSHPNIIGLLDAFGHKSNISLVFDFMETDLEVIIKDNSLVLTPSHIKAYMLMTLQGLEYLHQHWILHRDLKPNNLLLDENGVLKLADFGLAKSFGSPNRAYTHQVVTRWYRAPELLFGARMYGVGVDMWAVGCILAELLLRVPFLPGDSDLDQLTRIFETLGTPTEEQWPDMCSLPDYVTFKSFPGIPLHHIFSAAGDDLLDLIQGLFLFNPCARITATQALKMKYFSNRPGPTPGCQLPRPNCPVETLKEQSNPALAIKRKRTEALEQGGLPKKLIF

[17] = biological target: TLK2 (Homo sapiens, UniProt Q86UE8); assay: biochemical; details: read-out: %Ctrl @ 2000nM
[18] = biological target: LATS2 (Homo sapiens, UniProt Q9NRM7); assay: biochemical; details: read-out: %Ctrl @ 2000nM
[19] = biological target: MST1 (Homo sapiens, UniProt Q13043); assay: biochemical; details: read-out: %Ctrl @ 2000nM
[20] = biological target: ANKK1 (Homo sapiens, UniProt Q8NFD2); assay: biochemical; details: read-out: %Ctrl @ 2000nM
[21] = biological target: VPS34 (Homo sapiens, UniProt Q8NEB9); assay: biochemical; details: read-out: %Ctrl @ 2000nM
[22] = biological target: PFTK1 (Homo sapiens, UniProt O94921); assay: biochemical; details: read-out: %Ctrl @ 2000nM
[23] = biological target: ADCK3 (Homo sapiens, UniProt Q8NI60); assay: biochemical; details: read-out: %Ctrl @ 2000nM
[24] = biological target: BTK (Homo sapiens, UniProt Q06187); assay: biochemical; details: read-out: %Ctrl @ 2000nM
[25] = biological target: PKN1 (Homo sapiens, UniProt Q16512); assay: biochemical; details: read-out: %Ctrl @ 2000nM
[26] = biological target: PIP5K1A (Homo sapiens, UniProt Q99755); assay: biochemical; details: read-out: %Ctrl @ 2000nM
[27] = system: AKT (S129); details: HEK293 cells; 48 h
[28] = biological target: DCAMKL3 (Homo sapiens, UniProt Q9C098); assay: biochemical; details: read-out: %Ctrl @ 2000nM
DCAMKL3, sequence (Q9C098 whole entry): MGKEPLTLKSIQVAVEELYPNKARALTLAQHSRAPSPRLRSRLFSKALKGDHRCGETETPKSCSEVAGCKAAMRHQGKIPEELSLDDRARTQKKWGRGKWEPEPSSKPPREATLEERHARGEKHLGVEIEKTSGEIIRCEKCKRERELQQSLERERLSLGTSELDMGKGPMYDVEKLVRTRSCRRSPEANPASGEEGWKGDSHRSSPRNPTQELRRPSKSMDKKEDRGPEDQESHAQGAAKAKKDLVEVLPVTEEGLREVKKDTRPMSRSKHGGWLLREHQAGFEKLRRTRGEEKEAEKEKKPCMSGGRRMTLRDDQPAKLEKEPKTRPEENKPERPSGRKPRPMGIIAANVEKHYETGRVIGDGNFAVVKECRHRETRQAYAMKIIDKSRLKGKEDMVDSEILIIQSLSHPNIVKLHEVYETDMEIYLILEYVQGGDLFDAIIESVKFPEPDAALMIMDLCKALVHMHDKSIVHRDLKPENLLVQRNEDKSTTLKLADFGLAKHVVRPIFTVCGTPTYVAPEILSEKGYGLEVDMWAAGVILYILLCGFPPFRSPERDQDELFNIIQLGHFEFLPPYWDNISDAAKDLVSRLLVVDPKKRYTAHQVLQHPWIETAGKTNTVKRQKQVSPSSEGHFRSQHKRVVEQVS

[29] = biological target: MAP4K4 (Homo sapiens, UniProt O95819); assay: biochemical; details: read-out: %Ctrl @ 2000nM
[30] = biological target: EGFR(E746-A750del) (Homo sapiens, UniProt P00533, DEL746-750); assay: biochemical; details: read-out: %Ctrl @ 2000nM
[31] = biological target: FYN (Homo sapiens, UniProt P06241); assay: biochemical; details: read-out: %Ctrl @ 2000nM
[32] = biological target: PAK3 (Homo sapiens, UniProt O75914); assay: biochemical; details: read-out: %Ctrl @ 2000nM
[33] = biological target: GRK4 (Homo sapiens, UniProt P32298); assay: biochemical; details: read-out: %Ctrl @ 2000nM
[34] = biological target: PRKCQ (Homo sapiens, UniProt Q04759); assay: biochemical; details: read-out: %Ctrl @ 2000nM
[35] = biological target: INSRR (Homo sapiens, UniProt P14616); assay: biochemical; details: read-out: %Ctrl @ 2000nM
[36] = system: survivin; details: 786-O cells; 2.5-15 μM; 48 h
[37] = biological target: ACVR2A (Homo sapiens, UniProt P27037); assay: biochemical; details: read-out: %Ctrl @ 2000nM
ACVR2A, sequence (P27037 20-513): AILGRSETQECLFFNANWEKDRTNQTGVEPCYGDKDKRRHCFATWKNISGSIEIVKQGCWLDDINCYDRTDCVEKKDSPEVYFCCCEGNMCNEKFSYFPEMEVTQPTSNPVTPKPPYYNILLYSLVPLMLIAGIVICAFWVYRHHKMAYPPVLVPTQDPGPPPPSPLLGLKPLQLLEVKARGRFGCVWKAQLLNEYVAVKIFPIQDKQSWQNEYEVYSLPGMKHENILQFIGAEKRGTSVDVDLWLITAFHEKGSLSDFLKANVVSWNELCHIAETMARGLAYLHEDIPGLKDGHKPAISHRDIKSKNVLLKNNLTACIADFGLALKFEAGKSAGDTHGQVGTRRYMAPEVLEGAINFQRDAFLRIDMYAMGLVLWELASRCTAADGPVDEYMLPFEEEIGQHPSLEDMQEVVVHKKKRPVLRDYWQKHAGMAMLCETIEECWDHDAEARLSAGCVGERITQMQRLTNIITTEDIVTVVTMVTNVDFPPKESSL

[38] = biological target: PCTK1 (Homo sapiens, UniProt Q00536); assay: biochemical; details: read-out: %Ctrl @ 2000nM
[39] = biological target: PRKCE (Homo sapiens, UniProt Q02156); assay: biochemical; details: read-out: %Ctrl @ 2000nM
PRKCE, sequence (Q02156 whole entry): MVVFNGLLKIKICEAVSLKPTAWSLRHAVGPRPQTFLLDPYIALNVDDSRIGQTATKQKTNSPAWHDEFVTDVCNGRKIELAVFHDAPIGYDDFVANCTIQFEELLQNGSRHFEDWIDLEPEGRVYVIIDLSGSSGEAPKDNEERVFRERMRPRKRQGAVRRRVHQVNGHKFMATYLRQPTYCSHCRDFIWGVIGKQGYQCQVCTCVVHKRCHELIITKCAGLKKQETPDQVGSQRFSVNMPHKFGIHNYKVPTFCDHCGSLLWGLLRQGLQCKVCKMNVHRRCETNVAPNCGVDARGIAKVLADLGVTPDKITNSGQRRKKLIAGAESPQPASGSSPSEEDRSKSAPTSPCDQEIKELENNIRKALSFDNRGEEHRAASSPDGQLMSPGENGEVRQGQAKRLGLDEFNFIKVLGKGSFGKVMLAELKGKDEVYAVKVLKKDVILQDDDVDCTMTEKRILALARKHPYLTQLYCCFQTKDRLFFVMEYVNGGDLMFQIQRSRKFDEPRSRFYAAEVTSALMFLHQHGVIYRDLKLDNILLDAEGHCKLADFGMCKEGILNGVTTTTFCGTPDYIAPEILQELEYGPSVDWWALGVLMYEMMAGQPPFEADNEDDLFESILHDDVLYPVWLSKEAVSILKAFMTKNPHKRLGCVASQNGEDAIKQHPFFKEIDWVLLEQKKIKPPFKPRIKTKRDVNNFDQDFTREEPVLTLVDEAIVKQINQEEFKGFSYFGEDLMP

[40] = biological target: ARK5 (Homo sapiens, UniProt O60285); assay: biochemical; details: read-out: %Ctrl @ 2000nM
ARK5, sequence (O60285 whole entry): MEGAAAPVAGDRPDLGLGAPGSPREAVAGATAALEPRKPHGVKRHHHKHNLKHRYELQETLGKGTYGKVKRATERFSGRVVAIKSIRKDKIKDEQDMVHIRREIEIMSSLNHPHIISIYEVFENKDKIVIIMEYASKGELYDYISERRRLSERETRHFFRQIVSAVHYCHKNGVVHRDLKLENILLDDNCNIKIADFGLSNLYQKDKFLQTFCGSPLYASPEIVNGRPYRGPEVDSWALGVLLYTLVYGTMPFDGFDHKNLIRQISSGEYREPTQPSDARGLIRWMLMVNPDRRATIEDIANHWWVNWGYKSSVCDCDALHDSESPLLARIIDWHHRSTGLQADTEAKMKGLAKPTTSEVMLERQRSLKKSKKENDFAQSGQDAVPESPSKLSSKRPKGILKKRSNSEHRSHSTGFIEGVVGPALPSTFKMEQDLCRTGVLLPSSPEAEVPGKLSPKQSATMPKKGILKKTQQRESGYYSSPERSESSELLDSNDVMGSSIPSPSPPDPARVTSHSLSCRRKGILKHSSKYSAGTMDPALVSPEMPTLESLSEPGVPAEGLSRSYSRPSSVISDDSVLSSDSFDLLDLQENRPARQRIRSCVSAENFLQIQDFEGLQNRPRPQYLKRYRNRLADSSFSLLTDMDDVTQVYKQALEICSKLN

[41] = biological target: BMX (Homo sapiens, UniProt P51813); assay: biochemical; details: read-out: %Ctrl @ 2000nM
[42] = system: FLT3(ITD,D835V)
[43] = biological target: PDGFRB (Homo sapiens, UniProt P09619); assay: biochemical; details: read-out: %Ctrl @ 2000nM
[44] = biological target: CDK4 (Homo sapiens, UniProt P11802); assay: biochemical; details: read-out: %Ctrl @ 2000nM

KIT(V559D), sequence (P10721 26-976 V559D): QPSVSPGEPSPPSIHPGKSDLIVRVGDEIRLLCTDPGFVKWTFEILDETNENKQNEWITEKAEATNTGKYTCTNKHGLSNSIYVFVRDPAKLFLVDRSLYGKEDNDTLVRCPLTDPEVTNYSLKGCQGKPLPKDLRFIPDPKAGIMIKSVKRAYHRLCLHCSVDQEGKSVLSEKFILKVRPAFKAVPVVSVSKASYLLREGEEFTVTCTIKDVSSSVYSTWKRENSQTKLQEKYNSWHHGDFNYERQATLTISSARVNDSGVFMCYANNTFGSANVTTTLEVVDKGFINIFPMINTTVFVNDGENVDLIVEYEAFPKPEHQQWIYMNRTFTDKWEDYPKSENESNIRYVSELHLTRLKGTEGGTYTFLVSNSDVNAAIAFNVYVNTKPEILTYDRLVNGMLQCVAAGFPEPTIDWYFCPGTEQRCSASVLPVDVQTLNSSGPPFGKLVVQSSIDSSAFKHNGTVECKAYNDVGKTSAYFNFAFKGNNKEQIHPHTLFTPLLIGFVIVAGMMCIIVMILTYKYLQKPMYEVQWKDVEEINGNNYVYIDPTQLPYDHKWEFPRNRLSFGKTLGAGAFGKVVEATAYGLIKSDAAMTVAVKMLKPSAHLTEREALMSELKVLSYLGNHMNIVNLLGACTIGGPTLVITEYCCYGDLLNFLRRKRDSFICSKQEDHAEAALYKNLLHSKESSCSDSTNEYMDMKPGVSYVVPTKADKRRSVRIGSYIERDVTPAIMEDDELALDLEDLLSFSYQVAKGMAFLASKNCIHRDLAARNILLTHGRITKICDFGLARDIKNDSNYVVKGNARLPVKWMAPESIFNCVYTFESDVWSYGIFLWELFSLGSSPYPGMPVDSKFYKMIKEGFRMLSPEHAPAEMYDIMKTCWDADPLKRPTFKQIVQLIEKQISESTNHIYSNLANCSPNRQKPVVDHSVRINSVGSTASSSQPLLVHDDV

`CC(C)COC(=O)c1[nH]c2ccc(F)cc2c1-c1cn(CC2CCN(CCNS(=O)(=O)c3ccc(CC(C)C)cc3)CC2)nn1` [AB668, isobutyl 5-fluoro-3-(1-((1-(2-((4-isobutylphenyl)sulfonamido)ethyl)piperidin-4-yl)methyl)-1H-1,2,3-triazol-4-yl)-1H-indole-2-carboxylate] showed a remaining activity at 2 µM [1] of 98%, a remaining activity at 2 µM [2] of 100% and a remaining activity at 2 µM [3] of 85%. It also gave a remaining activity at 2 µM [4] of 95%, a remaining activity at 2 µM [5] of 96% and a remaining activity at 2 µM [6] of 88%. For the same compound, the remaining activity at 2 µM [7] was 98%, the cytotoxicity [8] was “no cytotoxicity” and the remaining activity at 2 µM [9] was 78%. For the same compound, the remaining activity at 2 µM [10] was 99%, the remaining activity at 2 µM [11] was 85% and the remaining activity at 2 µM [12] was 90%. For the same compound, the remaining activity at 2 µM [13] was 70%, the remaining activity at 2 µM [14] was 100% and the remaining activity at 2 µM [15] was 80%. For the same compound, the remaining activity at 2 µM [16] was 98%, the remaining activity at 2 µM [17] was 88% and the remaining activity at 2 µM [18] was 89%. It also gave a remaining activity at 2 µM [19] of 97%, a remaining activity at 2 µM [20] of 100% and a remaining activity at 2 µM [21] of 100%. The remaining activity at 2 µM [22] was 84%, the remaining activity at 2 µM [23] was 86% and the remaining activity at 2 µM [24] was 100%. For the same compound, the remaining activity at 2 µM [25] was 91%, the remaining activity at 2 µM [26] was 85% and the AKT phosphorylation [27] was “weakly affected”. The remaining activity at 2 µM [28] was 91%, the remaining activity at 2 µM [29] was 96% and the remaining activity at 2 µM [30] was 88%. It also gave a remaining activity at 2 µM [31] of 64%, a remaining activity at 2 µM [32] of 95% and a remaining activity at 2 µM [33] of 98%. For the same compound, the remaining activity at 2 µM [34] was 87%, the remaining activity at 2 µM [35] was 93% and the expression of survivin [36] was “reduced the expression of survivin”. The remaining activity at 2 µM [37] was 95%, the remaining activity at 2 µM [38] was 94% and the remaining activity at 2 µM [39] was 98%. For the same compound, the remaining activity at 2 µM [40] was 83%, the remaining activity at 2 µM [41] was 85% and the “%Ctrl @ 2000nM” value [42] was 77%. It also gave a remaining activity at 2 µM [43] of 100% and a remaining activity at 2 µM [44] of 100%.
